# Measured values from US6607522B1, “Methods for tissue welding using laser-activated protein solders” (General Hospital Corporation, priority 2000, dated 2003).
# Experiments:
# [1] = in vitro; cited from earlier work
# [2] = tested on: 5 mm incision on equatorial sclera of human cadaveric eyes; assay: Leaking pressure of laser-welded scleral incisions in cadaveric eyes
# Text: Welding Procedure: To measure leaking pressures, an 18-gauge butterfly needle was connected by plastic tubing to a water bottle. The inner pressure in the bottle was controlled by a hand-pumped sphygmomanometer. Nonpreserved cadaveric eyes were defrosted in room-temperature water. The butterfly needle was inserted in the vitreous cavity through equatorial sclera, and the eye was pressurized to 25 to 30 mm Hg. The corneal epithelium was then removed at the wound site, and a caliper set on 5 mm used to make the extent of the incision on equatorial sclera, perpendicular to the limbus. All incisions were placed equidistant from the limbus, and areas of blue or thin sclera were avoided. […] The exact power output of the fiber was measured using a power meter (model 210; Coherent, Palo Alto, Calif.). Argon laser goggles (Glendale Protective Technologies, Lakeland, Fla.) were worn, which allowed viewing of the fluorescence from the Ce6 (emission 670 nm). To set the remaining adhesive on the scleral surface, which surrounded the wound, additional laser was applied until loss of fluorescence of the dye, which took another 30 to 45 seconds.
# Leaking Pressure: Leaking pressures were then measured using the sphygmomanometer, which was increasingly pressurized in approximately 10-mm Hg increments. Leaking pressure was recorded the moment the wound leaked air or fluid. […]
Compound,triplet yield [1],"Mean Leaking Pressure ([2]; argon blue-green laser 488-514 nm, total energy 24-57 J, 60-120 s, mean ± spread)","Mean Leaking Pressure/Total Energy Ratio ([2]; leaking pressure in mm Hg, total energy in joules)"
CC1(C)C(/C=C/C=C/C=C/C=C2\N(CCCCS(=O)(=O)O)c3ccc4ccccc4c3C2(C)C)=[N+](CCCCS(=O)(=O)[O-])c2ccc3ccccc3c21 [indocyanine green],0.11,,
"BSA − Ce6 conjugate: Covalent bovine serum albumin-chlorin e6 conjugate solder; protein 5.2 mM, Ce6 6.2 mM, ratio 0.84",,78.0 ± 11.9 millimeters of mercury,1.75 ± 0.26
